Reference: the NIST ThermoML archive (doi:10.1016/j.jct.2007.11.009)

Assay: xn = mol fraction of the nth substance listed
Details: Liquid, Vibrating tube method

CCCCCCCC [octane] + c1ccccc1
mass density [kg/m3]
Details | x1 = 0.1097 | x1 = 0.2036 | x1 = 0.2984 | x1 = 0.4069 | x1 = 0.5027 | x1 = 0.5904 | x1 = 0.6989 | x1 = 0.7964 | x1 = 0.904 | x1 = 1
318.15 K, 100 kPa | 818.2 | 794.1 | 773.6 | 753.6 | 738.1 | 725.8 | 712.4 | 701.5 | 691.1 | 682.8
318.15 K, 2130 kPa | 820.2 | 796.1 | 775.6 | 755.6 | 740.1 | 727.8 | 714.4 | 703.5 | 693.1 | 684.7
318.15 K, 4150 kPa | 822.1 | 798.1 | 777.6 | 757.6 | 742.1 | 729.8 | 716.4 | 705.5 | 695.1 | 686.7
318.15 K, 6180 kPa | 824 | 800 | 779.5 | 759.5 | 744 | 731.7 | 718.3 | 707.4 | 696.9 | 688.6
318.15 K, 8210 kPa | 825.8 | 801.9 | 781.4 | 761.4 | 745.9 | 733.6 | 720.2 | 709.3 | 698.8 | 690.4
318.15 K, 10230 kPa | 827.7 | 803.7 | 783.3 | 763.3 | 747.8 | 735.5 | 722 | 711.1 | 700.6 | 692.2
318.15 K, 11250 kPa | 828.6 | 804.6 | 784.2 | 764.2 | 748.7 | 736.4 | 722.9 | 712 | 701.5 | 693.1
318.15 K, 12260 kPa | 829.4 | 805.5 | 785.1 | 765.1 | 749.6 | 737.3 | 723.8 | 713 | 702.4 | 694
318.15 K, 14290 kPa | 831.2 | 807.3 | 786.8 | 766.9 | 751.4 | 739.1 | 725.6 | 714.7 | 704.2 | 695.7
318.15 K, 16310 kPa | 832.9 | 809 | 788.6 | 768.6 | 753.2 | 740.8 | 727.3 | 716.4 | 705.9 | 697.4
318.15 K, 18340 kPa | 834.6 | 810.7 | 790.3 | 770.3 | 754.9 | 742.5 | 729 | 718.1 | 707.5 | 699.1
318.15 K, 20370 kPa | 836.2 | 812.4 | 792 | 772 | 756.6 | 744.2 | 730.7 | 719.8 | 709.2 | 700.7
318.15 K, 22390 kPa | 837.9 | 814.1 | 793.6 | 773.7 | 758.2 | 745.8 | 732.3 | 721.4 | 710.8 | 702.3
318.15 K, 24420 kPa | 839.5 | 815.7 | 795.3 | 775.3 | 759.8 | 747.4 | 733.9 | 723 | 712.4 | 703.9
318.15 K, 26450 kPa | 841 | 817.3 | 796.8 | 776.9 | 761.4 | 749 | 735.5 | 724.5 | 713.9 | 705.4
318.15 K, 28470 kPa | 842.6 | 818.8 | 798.5 | 778.5 | 763 | 750.6 | 737 | 726.1 | 715.4 | 706.9
318.15 K, 29490 kPa | 843.3 | 819.6 | 799.2 | 779.2 | 763.7 | 751.4 | 737.8 | 726.8 | 716.1 | 707.6
318.15 K, 30500 kPa | 844.1 | 820.4 | 799.9 | 780 | 764.5 | 752.1 | 738.5 | 727.5 | 716.9 | 708.3
318.15 K, 32530 kPa | 845.6 | 821.9 | 801.4 | 781.5 | 766 | 753.6 | 740 | 729 | 718.3 | 709.7
318.15 K, 34550 kPa | 847.1 | 823.4 | 802.9 | 783 | 767.5 | 755.1 | 741.5 | 730.5 | 719.7 | 711.2
318.15 K, 36580 kPa | 848.5 | 824.8 | 804.4 | 784.4 | 768.9 | 756.5 | 742.9 | 731.9 | 721.1 | 712.5
318.15 K, 38600 kPa | 850 | 826.3 | 805.8 | 785.9 | 770.4 | 757.9 | 744.3 | 733.3 | 722.5 | 713.9
318.15 K, 39620 kPa | 850.7 | 827 | 806.5 | 786.6 | 771.1 | 758.6 | 745 | 734 | 723.2 | 714.6
328.15 K, 100 kPa | 807.9 | 784.5 | 764.1 | 744.3 | 729.2 | 717 | 704 | 693.3 | 683 | 674.5
328.15 K, 2130 kPa | 810 | 786.7 | 766.2 | 746.5 | 731.4 | 719.1 | 706.1 | 695.5 | 685.1 | 676.6
328.15 K, 4150 kPa | 812.1 | 788.7 | 768.3 | 748.6 | 733.5 | 721.2 | 708.2 | 697.6 | 687.2 | 678.7
328.15 K, 6180 kPa | 814.1 | 790.8 | 770.4 | 750.7 | 735.6 | 723.3 | 710.3 | 699.7 | 689.2 | 680.7
328.15 K, 8210 kPa | 816.1 | 792.8 | 772.4 | 752.7 | 737.6 | 725.3 | 712.3 | 701.7 | 691.2 | 682.6
328.15 K, 10230 kPa | 818 | 794.7 | 774.4 | 754.7 | 739.6 | 727.3 | 714.3 | 703.7 | 693.2 | 684.6
328.15 K, 11250 kPa | 818.9 | 795.7 | 775.3 | 755.6 | 740.6 | 728.3 | 715.2 | 704.6 | 694.1 | 685.5
328.15 K, 12260 kPa | 819.9 | 796.6 | 776.3 | 756.6 | 741.5 | 729.2 | 716.2 | 705.6 | 695 | 686.4
328.15 K, 14290 kPa | 821.7 | 798.5 | 778.2 | 758.5 | 743.4 | 731.1 | 718.1 | 707.4 | 696.9 | 688.3
328.15 K, 16310 kPa | 823.6 | 800.4 | 780.1 | 760.4 | 745.3 | 733 | 719.9 | 709.3 | 698.7 | 690.1
328.15 K, 18340 kPa | 825.3 | 802.1 | 781.9 | 762.2 | 747.1 | 734.8 | 721.7 | 711.2 | 700.5 | 691.8
328.15 K, 20370 kPa | 827.1 | 803.9 | 783.6 | 763.9 | 748.9 | 736.6 | 723.4 | 713 | 702.2 | 693.6
328.15 K, 22390 kPa | 828.8 | 805.7 | 785.4 | 765.7 | 750.6 | 738.3 | 725.1 | 714.5 | 703.9 | 695.2
328.15 K, 24420 kPa | 830.5 | 807.4 | 787.1 | 767.4 | 752.3 | 740 | 726.8 | 716.2 | 705.6 | 696.9
328.15 K, 26450 kPa | 832.2 | 809.1 | 788.8 | 769.1 | 754 | 741.6 | 728.5 | 717.8 | 707.2 | 698.5
328.15 K, 28470 kPa | 833.8 | 810.7 | 790.4 | 770.7 | 755.6 | 743.2 | 730.1 | 719.4 | 708.8 | 700
328.15 K, 29490 kPa | 834.6 | 811.5 | 791.2 | 771.5 | 756.4 | 744 | 730.9 | 720.1 | 709.6 | 700.8
328.15 K, 30500 kPa | 835.4 | 812.3 | 792 | 772.3 | 757.2 | 744.8 | 731.7 | 720.9 | 710.3 | 701.6
328.15 K, 32530 kPa | 837 | 813.9 | 793.6 | 773.9 | 758.8 | 746.4 | 733.2 | 722.5 | 711.9 | 703
328.15 K, 34550 kPa | 838.5 | 815.5 | 795.2 | 775.4 | 760.3 | 747.9 | 734.7 | 724 | 713.4 | 704.5
328.15 K, 36580 kPa | 840 | 817 | 796.7 | 777 | 761.8 | 749.4 | 736.2 | 725.5 | 714.8 | 706
328.15 K, 38600 kPa | 841.5 | 818.5 | 798.2 | 778.4 | 763.3 | 750.9 | 737.7 | 726.9 | 716.2 | 707.4
328.15 K, 39620 kPa | 842.3 | 819.1 | 798.9 | 779.2 | 764 | 751.6 | 738.4 | 727.6 | 716.9 | 708.1
